Laboratory results taken from patent US7138414B2, “Heterocyclically substituted benzoylureas, process for their preparation and their use as pharmaceuticals” (Sanofi-Aventis Deutschland GmbH, priority 2002, dated 2006).

The compounds below were run against T1, human glycogen phosphorylase a (Homo sapiens, UniProt P06737) (assay: Glycogen phosphorylase a activity test (reverse direction, release of inorganic phosphate)). Conditions: 10 μM test substance; duplicate determinations; 40 min at room temperature.
T1 sequence (P06737 2-847 limits assumed): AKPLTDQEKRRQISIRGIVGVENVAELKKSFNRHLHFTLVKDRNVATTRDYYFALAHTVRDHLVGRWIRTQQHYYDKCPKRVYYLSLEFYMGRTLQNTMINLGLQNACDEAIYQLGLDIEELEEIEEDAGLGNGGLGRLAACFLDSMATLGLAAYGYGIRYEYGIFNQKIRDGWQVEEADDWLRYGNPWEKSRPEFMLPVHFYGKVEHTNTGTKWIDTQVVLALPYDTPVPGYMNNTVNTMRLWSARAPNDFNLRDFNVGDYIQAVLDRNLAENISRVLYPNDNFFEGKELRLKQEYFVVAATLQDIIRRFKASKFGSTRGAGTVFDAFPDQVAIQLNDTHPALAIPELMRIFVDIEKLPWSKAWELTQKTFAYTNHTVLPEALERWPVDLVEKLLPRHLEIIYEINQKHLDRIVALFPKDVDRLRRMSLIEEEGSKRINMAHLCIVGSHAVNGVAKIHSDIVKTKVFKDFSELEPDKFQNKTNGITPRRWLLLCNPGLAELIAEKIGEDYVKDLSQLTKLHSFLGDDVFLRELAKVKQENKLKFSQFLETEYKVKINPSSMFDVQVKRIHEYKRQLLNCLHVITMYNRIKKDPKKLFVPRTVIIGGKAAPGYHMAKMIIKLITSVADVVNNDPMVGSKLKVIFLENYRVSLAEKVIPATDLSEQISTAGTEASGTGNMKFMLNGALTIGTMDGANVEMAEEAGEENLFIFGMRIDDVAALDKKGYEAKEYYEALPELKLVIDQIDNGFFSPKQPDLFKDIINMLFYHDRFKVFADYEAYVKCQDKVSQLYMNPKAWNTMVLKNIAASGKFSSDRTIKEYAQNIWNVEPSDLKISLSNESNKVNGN
Format: biochemical
Description: Glycogen Phophorylase a Activity Test
All reactions were carried out as duplicate determinations in 96-well microtiter plates (half area plates, Costar No. 3696), and the change in absorption as a consequence of the formation of the reaction product was measured at the wavelength specified below in a Multiskan Ascent Elisa Reader (Lab Systems, Finland).
In order to measure the GPa enzyme activity in the reverse direction, the conversion of glucose 1-phosphate to glycogen and inorganic phosphate was measured by the general method of Engers et al. (Engers H D, Shechosky S, Madsen N B, Can J Biochem 1970 July;48(7):746–754) with the following modifications: human glycogen phosphorylase a (for example containing 0.76 mg of protein/ml (Aventis Pharma Deutschland GmbH), dissolved in buffer solution E (25 mM β-glycerophosphate, pH 7.0, 1 mM EDTA and 1 mM dithiothreitol) was diluted to a concentration of 10 μg of protein/ml with buffer T (50 mM Hepes, pH 7.0, 100 mM KCl, 2.5 mM EDTA, 2.5 mM MgCl26H2O) and addition of 5 mg/ml of glycogen. Test substances were prepared as a 10 mM solution in DMSO and diluted to 50 μM with buffer solution T. To 10 μl of this solution were added 10 μl of 37.5 mM glucose dissolved in buffer solution T and 5 mg/ml of glycogen, and also 10 μl of a solution of human glycogen phosphorylase a (10 μg of protein/ml) and 20 μl of 2.5 mM glucose 1-phosphate. The base value of the activity of glycogen phosphorylase a in the absence of test substance was determined by adding 10 μl of buffer solution T (0.1% DMSO). The mixture was incubated at room temperature for 40 minutes and the released inorganic phosphate was determined by means of the general method of Drueckes et al. (al (Drueckes P, Schinzel R, Palm D, Anal Biochem 1995 Sep. 1;230(1):173–177) with the following modifications: 50 μl of a stop solution of 7.3 mM of ammonium molybdate, 10.9 mM of zinc acetate, 3.6% of ascorbic acid, 0.9% of SDS are added to 50 μl of the enzyme mixture. After 60 minutes of incubation at 45° C., the absorption was measured at 820 nm. To determine the background absorption, the stop solution was added immediately after the addition of the glucose 1-phosphate solution in a separate reaction. This test was carried out at a concentration of 10 μM of the test substance, in order to determine the respective inhibition of glycogen phosphorylase a by the test substance in vitro.

First: COC(=O)C1CCN(c2ccc(F)cc2NC(=O)NC(=O)c2ccc(F)cc2Cl)CC1 [Example 40]
Second: O=C(NC(=O)c1ccc(F)cc1Cl)Nc1cc(F)ccc1N1CCC(C(=O)O)CC1 [Example 20]
The “% inhibition at 10 μM” value of the first is higher: 4.6% for the first, 0.04% for the second.

Compared with O=C(NC(=O)c1cc(F)c(F)cc1Cl)Nc1ccccc1-c1nc2ccccc2[nH]1 [Example 13a, 1-[2-(1H-benzoimidazol-2-yl)phenyl]-3-(2-chloro-4,5-difluorobenzoyl)urea], Nc1nnc(-c2ccccc2NC(=O)NC(=O)c2cc(F)c(F)cc2Cl)o1 [Example 10c, 1-[2-(5-amino-[1,3,4]oxadiazol-2-yl)phenyl]-3-(2-chloro-4,5-difluorobenzoyl)urea] is higher in “% inhibition at 10 μM” value: 48% for the first, 100% for the second.

First: O=C(NC(=O)c1cc(F)c(F)cc1Cl)Nc1cc(-c2nnc[nH]2)ccc1Cl [Example 6e, 1-(2-chloro-4,5-difluorobenzoyl)-3-[2-chloro-5-(4H-[1,2,4]triazol-3-yl)phenyl]urea]
Second: Cc1nnc(-c2ccc(Cl)c(NC(=O)NC(=O)c3cc(F)c(F)cc3Cl)c2)[nH]c1=O [Example 14e, 1-(2-chloro-4,5-difluorobenzoyl)-3-[2-chloro-5-(6-methyl-5-oxo-4,5-dihydro-[1,2,4]triazin-3-yl)phenyl]urea]
The “% inhibition at 10 μM” value of the first is higher: 100% for the first, 97% for the second.

Going from O=C(NC(=O)c1ccc(F)cc1Cl)Nc1cc(Cl)ccc1N1CCCC(C(=O)O)C1 (centres unmarked) [Example 32] to COC(=O)c1ccc(N2CCCC(C(=O)O)C2)c(NC(=O)NC(=O)c2ccc(F)cc2Cl)c1 (centres unmarked) [Example 34], the “% inhibition at 10 μM” value rises from 0.03% to 3.2%.

Going from COC(=O)c1ccc(N2CCCC(C(=O)O)C2)c(NC(=O)NC(=O)c2cc(F)c(F)cc2Cl)c1 (centres unmarked) [Example 33] to CS(=O)(=O)c1ccc(N2CCCC(C(=O)O)C2)c(NC(=O)NC(=O)c2cc(F)c(F)cc2Cl)c1 (centres unmarked) [Example 21], the “% inhibition at 10 μM” value falls from 1.0% to 0.3%.

Cc1nnc(-c2ccc(Cl)c(NC(=O)NC(=O)c3cc(F)c(F)cc3Cl)c2)nc1C [Example 14f, 1-(2-chloro-4,5-difluorobenzoyl)-3-[2-chloro-5-(5,6-dimethyl-[1,2,4]triazin-3-yl)phenyl]urea] and O=C(NC(=O)c1cc(F)c(F)cc1Cl)Nc1ccc(-c2nnn[nH]2)cc1Cl [Example 7d, 1-(2-chloro-4,5-difluorobenzoyl)-3-[2-chloro-4-(1H-tetrazol-5-yl)phenyl)urea] are the same in “% inhibition at 10 μM” value: 100% for the first, 100% for the second.

First: COC(=O)C1CCN(c2ccc(S(C)(=O)=O)cc2NC(=O)NC(=O)c2cc(F)c(F)cc2Cl)CC1 [Example 44]
Second: O=C(NC(=O)c1cc(F)c(F)cc1Cl)Nc1cc(C(F)(F)F)ccc1N1CCCC(C(=O)O)C1 (centres unmarked) [Example 23]
The “% inhibition at 10 μM” value of the first is higher: 0.05% for the first, 0.03% for the second.

First: O=C(NC(=O)c1cc(F)c(F)cc1Cl)Nc1ccc(-c2noc(=O)[nH]2)cc1OC(F)(F)F [Example 11d, 1-(2-chloro-4,5-difluorobenzoyl)-3-[4-(5-oxo-4,5-dihydro-[1,2,4]oxadiazol-3-yl)-2-trifluoromethoxyphenyl]urea]
Second: COc1cc(-c2nnc(CC(=O)O)[nH]2)ccc1NC(=O)NC(=O)c1ccc(F)cc1Cl [Example 4d, (5-(4-(3-(2-chloro-4-fluorobenzoyl)ureido)-3-methoxyphenyl)-4H-[1,2,4]triazol-3-yl)acetic acid]
The “% inhibition at 10 μM” value of the first is higher: 100% for the first, 90% for the second.

Going from O=C(NC(=O)c1ccc(F)cc1Cl)Nc1ccc(-c2nnn[nH]2)cc1Cl [Example 7c, 1-(2-chloro-4-fluorobenzoyl)-3-[2-chloro-4-(1H-tetrazol-5-yl)phenyl]urea] to Cc1nnc(-c2ccc(NC(=O)NC(=O)c3ccc(F)cc3Cl)c(Cl)c2)o1 [Example 9g, 1-(2-chloro-4-fluorobenzoyl)-3-[2-chloro-4-(5-methyl-[1,3,4]oxadiazol-2-yl)phenyl]urea], the “% inhibition at 10 μM” value falls from 100% to 79%.

Compared with CCN(CC)C(=O)C1CCCN(c2ccc(F)cc2NC(=O)NC(=O)c2ccc(F)cc2Cl)C1 (centres unmarked) [Example 38], CCOC(=O)C1CCCN(c2ccc(F)cc2NC(=O)NC(=O)c2ccc(F)cc2Cl)C1 (centres unmarked) [Example 36] is lower in “% inhibition at 10 μM” value: 4.6% for the first, 0.3% for the second.
